The species named for experiment [1] is Rattus norvegicus. Nature of the experiment: Displacement of [3H]cytisine from Wistar rat cerebral cortex alpha4beta2* nAChR at 1 uM incubated for 75 mins by competition binding assay. The class given is tissue-based. In general terms: Loss of bound radioactivity is the signal in a displacement assay; it reports binding, not function.
For experiment [2], the species on record is Rattus norvegicus. In words: Displacement of [3H]methyllycaconitine from Sprague-Dawley rat brain alpha7* nAChR at 1 uM incubated for 2.5 hrs by liquid scintillation counting analysis. The class given is tissue-based.
Experiment [3] in a line: Displacement of [3H]methyllycaconitine from Sprague-Dawley rat brain alpha7* nAChR incubated for 2.5 hrs by liquid scintillation counting analysis. The class given is tissue-based.
Experiment [4] is filed under the species Rattus norvegicus. Nature of the experiment: Selectivity ratio of Ki for Wistar rat cerebral cortex alpha4beta2* nAChR to Ki for Sprague-Dawley rat brain alpha7* nAChR. The class given is tissue-based.
The nature of experiment [5]: Displacement of [3H]cytisine from Wistar rat cerebral cortex alpha4beta2* nAChR incubated for 75 mins by competition binding assay. The class given is tissue-based.
For experiment [6], the species on record is Rattus norvegicus. In words: Antagonist activity at rat alpha4beta2* nAChR expressed in Xenopus oocytes assessed as inhibition of epibatidine-induced ion current at 50 uM preincubated with compound followed by 1 uM epibatidine addition along with compound treatment measured after 36 to 72 hrs by two electrode voltage clamp method. The class given is cell-based. On the technique in general: In two-electrode clamp one electrode senses voltage and the other passes current.

The species named for experiment [7] is Gallus gallus. Nature of the experiment: Activation of chicken alpha7/GlyR chimeric receptor expressed in Xenopus oocytes at 50 uM after 36 to 72 hrs by two electrode voltage clamp method. The class given is cell-based.
The species named for experiment [8] is Gallus gallus. In words: Antagonist activity at chicken alpha7/GlyR chimeric receptor expressed in Xenopus oocytes assessed as inhibition of acetylcholine-induced ion current at 50 uM preincubated with compound followed by 100 uM acetylcholine addition along with compound treatment measured after 36 to 72 hrs by two electrode voltage clamp method. Type of experiment: cell-based.

Experiment [9] has as its target T1, Neuronal acetylcholine receptor subunit alpha-7 (Homo sapiens, UniProt P36544). Nature of the experiment: Agonist activity at human alpha7 receptor expressed in mouse Neuro2a cells assessed as induction of intracellular calcium level preincubated with PNU-120596 for 20 mins followed by compound addition measured every 2 sec for 3 mins by fluorescence microplate reader analysis. The class given is cell-based. Background: A change in cytosolic calcium serves as a functional read-out for many receptors and channels.

Experiment [10] has as its target T1, Neuronal acetylcholine receptor subunit alpha-7. Nature of the experiment: Agonist activity at human alpha7 receptor expressed in mouse Neuro2a cells assessed as induction of intracellular calcium level measured every 2 sec for 3 mins by fluorescence microplate reader analysis in presence of 2 uM alpha7 receptor antagonist alpha-cobratoxin. The class given is cell-based.

The species entered for experiment [11] is Rattus norvegicus. Nature of the experiment: Activation of rat alpha4beta2* nAChR expressed in Xenopus oocytes at 50 uM after 36 to 72 hrs by two electrode voltage clamp method. Type of experiment: cell-based.
Experiment [12] deals with T1, Neuronal acetylcholine receptor subunit alpha-7. Nature of the experiment: Antagonist activity at human alpha7 receptor expressed in mouse Neuro2a cells assessed as inhibition of acetylcholine iodide-induced intracellular calcium level at 300 uM preincubated with PNU-120596 for 20 mins followed by acetylcholine iodide addition along with compound treatment measured every 2 sec for 3 mins by fluorescence microplate reader analysis. The class given is cell-based.

The species named for experiment [13] is Rattus norvegicus. Nature of the experiment: Selectivity ratio of Ki for Sprague-Dawley rat brain alpha7* nAChR to Ki for Wistar rat cerebral cortex alpha4beta2* nAChR. Type of experiment: tissue-based.
Experiment [14] concerns the target T1, Neuronal acetylcholine receptor subunit alpha-7. In words: Antagonist activity at human alpha7 receptor expressed in mouse Neuro2a cells assessed as inhibition of acetylcholine iodide-induced intracellular calcium level at 50 uM preincubated with PNU-120596 for 20 mins followed by acetylcholine iodide addition along with compound treatment measured every 2 sec for 3 mins by fluorescence microplate reader analysis. Type of experiment: cell-based.

SMILES strings stand for the structures. Activity calls are given as the source filed them. The rule behind the calls is not given here.

T1 sequence (P36544 whole entry): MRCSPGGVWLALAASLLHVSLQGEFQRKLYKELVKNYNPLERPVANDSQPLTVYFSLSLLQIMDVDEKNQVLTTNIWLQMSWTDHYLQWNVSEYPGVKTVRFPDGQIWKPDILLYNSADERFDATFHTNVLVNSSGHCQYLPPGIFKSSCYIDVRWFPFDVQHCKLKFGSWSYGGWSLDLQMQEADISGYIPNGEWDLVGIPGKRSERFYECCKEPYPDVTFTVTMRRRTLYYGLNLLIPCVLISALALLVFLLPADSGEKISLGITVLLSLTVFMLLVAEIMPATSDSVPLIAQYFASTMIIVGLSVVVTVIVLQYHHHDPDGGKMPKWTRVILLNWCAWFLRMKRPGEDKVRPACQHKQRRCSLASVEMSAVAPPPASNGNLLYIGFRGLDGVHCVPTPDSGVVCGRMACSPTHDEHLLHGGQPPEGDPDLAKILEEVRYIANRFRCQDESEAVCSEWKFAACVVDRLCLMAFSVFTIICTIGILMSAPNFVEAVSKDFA

As for `O=C(NC1CN2CCC1CC2)c1ccc2ncccc2c1` (stereo not given), the Activity in [1] and in [2] was below 20% in each case.
As a reminder, the Ki is the equilibrium dissociation constant of an inhibitor or competing ligand from its target. A lower Ki goes with a stronger hold on the target. In experiment [3], `Cc1ccc2oc(N3CCN4CCC3CC4)nc2n1` displayed a Ki of 13.5 nM.
For `C[N+]12CCC(C1)N(c1ccc3ncccc3c1)CC2` (stereo not given), the Activity in experiment [1] and in [2] was below 20% throughout.
Turning to `O=C(NC1CN2CCC1CC2)c1cccc2cnccc12` (stereo not given), the Activity in experiment [1] and in [2] was below 20% in each case.
Regarding `O=C(c1ccc2ncccc2c1)N1CCN2CCC1CC2`, the Activity in experiment [1] and in [2] was below 20% in each case.
For `C[N+]12CCC(C1)N(C(=O)c1ccc3ncccc3c1)CC2` (stereo not given), the Activity in experiment [1] and in [2] was below 20% in each case.
As to `O=C(c1ccc2cccnc2c1)N1CCN2CCC1CC2`, the Activity in [1] and in experiment [2] was below 20% each time.
As to `C[N+]12CCC(C1)N(c1cccc3ncccc13)CC2` (stereo not given), the Activity in [1] and in experiment [2] was below 20% throughout.
In the case of `O=C(c1ccc2ncccc2c1)N1CCN2CCC1C2` (stereo not given), the Activity in experiment [1] and in experiment [2] was below 20% throughout.
In turn, `CCN1C[C@]2(COC(=O)c3ccccc3N3C(=O)CC(C)C3=O)CC[C@H](OC)[C@@]34C2[C@H](OC)[C@](O)(C13)[C@@]1(O)C[C@H](OC)[C@H]2C[C@@H]4[C@@H]1[C@H]2OC` (stereo not given in full) came in with a Ki in [3] of 1.4 nM.
In the case of `c1cc2cc(N3CCN4CCC3CC4)ccc2cn1`, the Ratio Ki in experiment [4] amounted to 3. Besides, the Ki in [3] is 248 nM; in experiment [5], above 1000 nM.
Consider `c1cc(N2CCN3CCC2CC3)c2cccnc2c1`, for which the Activity in experiment [1] and in experiment [2] was below 20% throughout.
Regarding `C[N+]12CCC(CC1)C(NC(=O)c1ccc3ncccc3c1)C2` (stereo not given), the Activity in experiment [1] and in [2] was below 20% throughout.
Take `O=C(c1cccc2cnccc12)N1CCN2CCC1CC2`: the Activity in [1] and in experiment [2] was below 20% throughout.
As for `O=C(N[C@H]1CN2CCC1CC2)c1cc2cccc(Cl)c2s1` [ENCENICLINE], the Ki in experiment [3] amounted to 9.98 nM.
On to `c1cc2cc(N3CCN4CCC3C4)ccc2cn1` (stereo not given), for which the Activity in experiment [1] and in experiment [2] was below 20% each time.
As for `c1cc(N2CCN3CCC2C3)c2cccnc2c1` (stereo not given), the Activity in experiment [1] and in [2] was below 20% throughout.
For the molecule `C[N+]12C=C(c3ccc4ncccc4c3)C(CC1)CC2`, the Activity in [1] and in experiment [2] was below 20% throughout.
In [3], `O=C(N[C@H]1CN2CCC1CC2)c1ccc(Cl)cc1` [PNU-282987] registered an inhibitory constant (Ki) of 24 nM.
For the molecule `C1=C(c2ccc3ncccc3c2)C2CCN1CC2`, the Activity in experiment [1] and in [2] was below 20% throughout.
On to `C[N+]12CCC(CC1)N(C(=O)c1ccc3ncccc3c1)CC2`, for which the Activity in experiment [1] and in experiment [2] was below 20% throughout.
As for `O=C(c1ccc2cccnc2c1)N1CCN2CCC1C2` (stereo not given), the Activity in experiment [1] and in experiment [2] was below 20% throughout.
For orientation: EC50 means the concentration needed to bring the measured effect to its halfway point. For the molecule `c1cnc2cc(N3CCN4CCC3CC4)ccc2c1`, the inhibition result in [6] and in [8] was “Active” in each case. For the same molecule, the result in experiment [7], in experiment [10] and in [11] was inactive. For the same molecule, the Ratio Ki in experiment [4] was 3. In addition, the EC50 in [9] turned out to be 1090 nM. Further, the figures for the Ki in [3] and in experiment [5] were 117 nM and above 1000 nM, respectively.
Turning to `c1cnc2ccc(N3CCN4CCC3C4)cc2c1` (stereo not given), the inhibition result in experiment [6], in experiment [8] and in [12] was “Active” throughout. In addition, the result in [7] and in experiment [11] was inactive. Besides, the Ki was above 1000 nM in experiment [3] and 412 nM in experiment [5]. Also, the Ratio Ki in [13] stood at 2.
On to `c1cnc2ccc(N3CCN4CCC3CC4)cc2c1`, for which the inhibition entry in experiment [6] and in [8] was “Active” in each case. For the same molecule, the outcome in experiment [7], in [10] and in experiment [11] was inactive. In experiment [4], the Ratio Ki was found to be 10. Further, the half-maximal effective concentration (EC50) in experiment [9] was 1410 nM. In addition, the figures for the Ki in experiment [3] and in experiment [5] were 96 nM and above 1000 nM, respectively.
Take `c1cnc2ccc(C3CN4CCC3CC4)cc2c1` (stereo not given): the Activity in [1] and in experiment [2] was below 20% each time.
For the molecule `C[N+]12CCC(CC1)C(NC(=O)c1cccc3cnccc13)C2` (stereo not given), the Activity in [1] and in experiment [2] was below 20% throughout.
As to `C[N+]12CCC(C1)N(C(=O)c1cccc3cnccc13)CC2` (stereo not given), the Activity in experiment [1] and in [2] was below 20% in each case.
For `O=C(NC1CN2CCC1CC2)c1ccc2cccnc2c1` (stereo not given), the inhibition entry in experiment [6], in [8] and in [14] was “Active” in each case. Moreover, the result in [7], in [10] and in experiment [11] was inactive. In addition, the Ratio Ki in [4] was 3. Further, the concentration giving a half-maximal response (EC50) in [9] is 1570 nM. For the same molecule, the Ki was 287 nM in [3] and above 1000 nM in experiment [5].
In the case of `C[N+]12CCC(C1)N(c1ccc3cnccc3c1)CC2` (stereo not given), the Activity in experiment [1] and in experiment [2] was below 20% each time.
In the case of `O=C(c1cccc2cnccc12)N1CCN2CCC1C2` (stereo not given), the Activity in experiment [1] and in [2] was below 20% each time.
In the case of `C[N+]12CCC(C1)N(C(=O)c1ccc3cccnc3c1)CC2` (stereo not given), the Activity in experiment [1] and in experiment [2] was below 20% in each case.
For `c1cncc(C2CCC3CCN2CC3)c1` (stereo not given), the inhibition constant (Ki) in [3] was 11 nM.
Same read-out and setting: for `O=C(Oc1ccc(Br)cc1)N1CCN2CCC1CC2` [SSR180711] the value was 22 nM.
On to `C[N+]12CCC(CC1)C(NC(=O)c1ccc3cccnc3c1)C2` (stereo not given), for which the Activity in [1] and in experiment [2] was below 20% in each case.
As to `C[N+]12CCC(CC1)N(C(=O)c1cccc3cnccc13)CC2`, the Activity in [1] and in [2] was below 20% each time.
On to `C[N+]12CCC(CC1)N(C(=O)c1ccc3cccnc3c1)CC2`, for which the Activity in [1] and in experiment [2] was below 20% each time.
Consider `c1cnc2cc(N3CCN4CCC3C4)ccc2c1` (stereo not given), for which the Activity in experiment [1] and in experiment [2] was below 20% throughout.
As to `CN1CCC[C@H]1c1cccnc1` [NICOTINE], the Ki in [5] is 2.3 nM.

The record behind these values is ChEMBL document CHEMBL3763033, “New quinoline derivatives as nicotinic receptor modulators” (Eur J Med Chem, 2016).
